Experimental data: PubChem BioAssay AID1159536 (DiRusso Lab, Biochemistry Department, University of Nebraska, 2015)
Inconclusive results are not listed. Activity calls are given as the source filed them. No rule for the calls is given here.

What follows are molecules tested on Chlamydomonas reinhardtii, Nile Red lipid fluorescence, 72 h (assay: algal triacylglycerol accumulation inducers, dose response, qHTS, Chlamydomonas reinhardtii (AID 1159536)).

SMILES	EC50
O=C(Nc1ccc(Cc2ccncc2)cc1)c1ccc([N+](=O)[O-])cc1Cl	1.21 µM (inactive)
COc1ccccc1N1CCN(C2CCN(CC3CC4C=CC3C4)CC2)CC1 (stereo unspecified)	10.5 µM
COc1ccc(CNC2CCSC2)cc1 (stereo unspecified)	0.314 µM
COc1ccc(C(=O)c2ccc(N3CCN(C)CC3)c([N+](=O)[O-])c2)cc1	1.27 µM (inactive)
Cc1ccc(C(=O)NC(C)C2CC3CCC2C3)s1 (stereo unspecified)	15.3 µM (inactive)
NC(=O)c1cc(-c2ccccc2)sc1NC(=O)c1ccc(OC(F)F)cc1	0.155 µM
C(=C\c1ccccc1)/CN1CCN(C2C3CC4CC(C3)CC2C4)CC1 (stereo unspecified)	3.99 µM
Cc1ccc(C)c(N2CCN(C3CCCCCC3)CC2)c1	10 µM
CN(C)c1ccc(NC(=O)Nc2ccc3nc(-c4ccccn4)c(-c4ccccn4)nc3c2)cc1	1.33 µM
c1ccc(CCc2nc(-c3ccncc3)no2)cc1	5.02 µM
CCN1CCC(N2CCN(c3ccc(Cl)cc3)CC2)CC1	2.59 µM
O=C1CC(N2CCC(C(O)(c3ccccc3)c3ccccc3)CC2)C(=O)N1c1ccc(F)cc1 (stereo unspecified)	13.6 µM (inactive)
CCS(=O)(=O)N1CCN(C2CCCCCCC2)CC1	5.99 µM
CC(C)=CCC[C@H](C)CCN1CCN(C)CC1	10 µM
Cc1ccc(OCCCCN2CCCC2)c(Br)c1	2.65 µM
Cc1ccccc1OCCCCN1CCOCC1	9.79 µM
Cc1cccc(N2CCN(C(=O)C3CCN(CC4CCCCC4)CC3)CC2)c1C	4.62 µM
C/C(=C\c1ccccc1)CN(C)CCN(C)C	2.65 µM
Fc1ccc(CN2CCN(c3ccccc3Cl)CC2)cc1	1.4 µM
C(#CC12CC3CC(CC(C3)C1)C2)CN1CCOCC1	3.27 µM
CCOc1c(Cl)cc(C(=O)Nc2cccc([N+](=O)[O-])c2)cc1Cl	13.4 µM (inactive)
Oc1ccc(Br)cc1CN1CCN(CC2CC3C=CC2C3)CC1 (stereo unspecified)	9.95 µM
CCC(C)c1ccccc1OCCCCN1CCCC1 (stereo unspecified)	2.68 µM
CN1CCCN(Cc2cccc(Oc3ccccc3)c2)CC1	10.1 µM
Cc1cc(C)c(C)c(OCCCCN2CCOCC2)c1	15.1 µM
CC(=O)N(C1=C(N(C)C)C(=O)c2ccccc2C1=O)c1ccc(Cl)c(Cl)c1	2.65 µM (inactive)

SMILES	EC50
COc1ccccc1N1CCN(Cc2ccc(Cl)cc2)CC1	1.61 µM
COc1cccc(N2CCN(C3CCCC(C)C3)CC2)c1 (stereo unspecified)	6.34 µM
CCN1CCN(C(=O)c2ccc(C(C)(C)C)cc2)CC1	1.4 µM
CN(CCc1ccccc1)C1CCN(Cc2ccccc2)CC1	0.0218 µM
COc1cccc(CN2CCN(Cc3ccc(F)cc3)CC2)c1OC	0.651 µM
Cn1c(SCC(=O)NCc2ccccc2)nnc1-c1ccc(C(C)(C)C)cc1	7.31 µM (inactive)
COc1cc2c(cc1OC)CN(Cc1ccc(F)cc1)CC2	9.96 µM
Clc1ccc(OCCCN2CCOCC2)c(Br)c1	10.5 µM
CC(C)NC(=O)c1ccccc1NC(=O)c1ccc(Br)cc1	1.01 µM
O=C(Nc1ccccc1)Nc1ccccc1C(=O)N1CCOCC1	22.2 µM (inactive)
CCOc1ccc(CN2CCN(c3ccc([N+](=O)[O-])cc3)CC2)cc1	2.64 µM
Oc1ccccc1CNCCC12CC3CC(CC(C3)C1)C2	2.49 µM (inactive)
Clc1ccc(OCCOCCN2CCCC2)c(Br)c1	2.6 µM
CN1CCN(CCCOc2ccc(Br)cc2)CC1	9.74 µM
Cc1ccc(CN(C)C2CCN(C)CC2)s1	10.2 µM
Nc1ccc(F)cc1C(=O)c1ccccc1	7.05 µM
COCCNS(=O)(=O)c1cc(Cl)ccc1OC	2.98 µM (inactive)
COc1ccc(CN(C)C2CCCCC2)cc1	2.79 µM
N#Cc1c(-n2ncnc2-c2cccnc2)sc2c1CCCCC2	2.47 µM (inactive)
Fc1ccc(CN2CCN(c3cccc(Cl)c3)CC2)cc1	1.29 µM
COc1cc(C(=O)Nc2ccc(S(=O)(=O)Nc3ncccn3)cc2)cc(OC)c1OC	30.9 µM (inactive)
Cc1ccc(C)c(N2CCN(Cc3ccc([N+](=O)[O-])cc3)CC2)c1	1.29 µM
CC(CNC(=O)c1ccc(C(C)(C)C)cc1)CN(C)C (stereo unspecified)	10.3 µM
CCC1CCC(N2CCN(CC)CC2)CC1 (stereo unspecified)	2.48 µM
CC(C)(C)C1CCC(NCc2ccncc2)CC1 (stereo unspecified)	3.53 µM
COc1ccccc1N1CCN(C2CCN(Cc3cccc(Cl)c3)CC2)CC1	10.1 µM

SMILES	EC50
CC1CCCC(N2CCN(Cc3ccccc3)CC2)C1 (stereo unspecified)	0.811 µM
O=C(c1ccc([N+](=O)[O-])cc1)N1CCN(CC2CC3C=CC2C3)CC1 (stereo unspecified)	6.07 µM
Clc1ccccc1-c1nnc(-c2ccccc2)o1	2.7 µM
Cc1cc(Br)ccc1OCCCN1CCN(C)CC1	2.18 µM
O=C(c1ccccc1)c1ccc(OCCCCn2ccnc2)cc1	1.33 µM (inactive)
CCOc1ccc(CN2CCN(c3ccccc3C)CC2)cc1	1.3 µM
Brc1ccc(CN2CCN(c3ccccc3)CC2)cc1	22 µM
c1ccc(CCN2CCN(c3ccccc3)CC2)cc1	0.157 µM
Clc1ccc(N2CCN(Cc3ccsc3)CC2)cc1	1.27 µM
O=[N+]([O-])c1ccc(CNC2CCCC2)cc1	0.645 µM
CC1(C)Oc2ccc(NC(=O)c3ccc(C(=O)c4ccccc4)cc3)cc2O1	8.94 µM (inactive)
O=C(O)CCSCC(=O)c1ccc(NS(=O)(=O)c2ccccc2)cc1	30.6 µM (inactive)
CCC(C)c1ccccc1OCCCN1CCOCC1 (stereo unspecified)	3.72 µM
O=C1C2C3CCC(C3)C2C(=O)N1c1nccs1 (stereo unspecified)	13.5 µM (inactive)
Cc1cc(C)c(S(=O)(=O)NCCCN2CCOCC2)cc1Br	0.769 µM
O=S(=O)(c1ccc(Cl)c(Cl)c1Cl)N1CCN(c2ccc(F)cc2)CC1	0.0144 µM (inactive)
CN1CCCN(Cc2ccc([N+](=O)[O-])o2)CC1	15 µM (inactive)
O=C(Nc1ccc([N+](=O)[O-])cc1)c1cccc(Cl)c1Cl	2.35 µM (inactive)
COc1ccccc1N1CCN(C2CCN(Cc3cccc(C)c3)CC2)CC1	10.4 µM
c1cc2c(cc1CNC1CCCC1)OCO2	10.7 µM
O=C(O)C1CC=CCC1C(=O)Nc1ccc(F)cc1F (stereo unspecified)	13.2 µM (inactive)
Cc1ccc(OCC(O)CN(C)C2CCCCC2)cc1C (stereo unspecified)	4.42 µM
CC(C(=O)NCc1ccc(Cl)cc1)N(c1ccccc1)S(C)(=O)=O (stereo unspecified)	11.3 µM (inactive)
O=[N+]([O-])c1ccc(CN2CCN(C3CCCC3)CC2)cc1	0.0669 µM
Cc1cccc(N2CCN(Cc3ccc([N+](=O)[O-])cc3)CC2)c1C	10.9 µM
Cc1cc(C)c(NC(=O)COc2ccccc2[N+](=O)[O-])c(C)c1	3.13 µM (inactive)

SMILES	EC50
COc1ccc(CN2CCN(c3ncnc4sc5c(c34)CCCC5)CC2)cc1	4.83 µM
O=[N+]([O-])c1ccccc1S(=O)(=O)N1CCN(C2CCN(Cc3ccccc3)CC2)CC1	10.7 µM
C(=C\c1ccccc1)/CN1CCN(C2CCc3ccccc3C2)CC1 (stereo unspecified)	9.92 µM
Cc1ccc(OCCCCN2CCCC2)cc1C	5.2 µM
COc1ccc(CN(C)C2CCCCC2)cc1C	2.69 µM
COc1cc(C)c(CN2CCCN(C)CC2)cc1C	10.3 µM
CC(C)(C)c1csc(NC(=O)c2ccc(N3CCOCC3)c([N+](=O)[O-])c2)n1	2.66 µM
C/C(=C\c1ccccc1)CN1CCN(C)CC1	1.01 µM
OCCN1CCN(C2C3CC4CC(C3)CC2C4)CC1 (stereo unspecified)	4.25 µM
Cc1cc(I)ccc1S(=O)(=O)NCCCN1CCOCC1	1.28 µM
CC1CCCCN1S(=O)(=O)c1ccc(NC(=O)c2ccc(Cl)cc2Cl)cc1 (stereo unspecified)	2.56 µM (inactive)
Cc1cc(OCC(O)CN2CCN(CCO)CC2)ccc1C(C)C (stereo unspecified)	0.81 µM
OC(COc1ccccc1Br)CN1CCCCC1 (stereo unspecified)	7.57 µM
C(=C\c1ccccc1)/CN1CCN(CC2CCCCC2)CC1	0.644 µM
Oc1ccc(CN2CCN(c3cccc(Cl)c3)CC2)cc1	0.0276 µM
COc1cccc(N2CCN(CC3CC4C=CC3C4)CC2)c1 (stereo unspecified)	1.26 µM
CCC(C)c1ccc(OCCN2CCCC2)cc1 (stereo unspecified)	5.17 µM
Cc1cc(C)c(OCCCCN2CCNCC2)c(C)c1	2.62 µM
c1coc(CN2CCN(C3CCCCCC3)CC2)c1	4.76 µM
C=CCn1c(SCC(=O)O)nnc1-c1ccc([N+](=O)[O-])cc1	13.6 µM (inactive)
Cc1ccc(OCCCCN2CCCCC2)c(C)c1	11.3 µM
OC(COc1ccc(Cl)cc1Cl)CN1CCN(Cc2ccccc2)CC1 (stereo unspecified)	7.67 µM
Cc1ccc(NC(=O)CSc2nnc(-c3ccc(Cl)cc3Cl)n2N)c(C)c1	2.46 µM (inactive)
CCCCNc1cc(C)nc(N2CCOCC2)n1	13.1 µM
CCc1ccc(CN2CCN(CC)CC2)cc1	4.68 µM
CCOc1ccc(CN2CCN(c3ccccc3OC)CC2)cc1	1.32 µM

SMILES	EC50
OC(COc1ccc(Br)cc1)CN1CCCCCC1 (stereo unspecified)	10.6 µM (inactive)
CCN(CC)CC#Cc1ccc(C#CCN(CC)CC)cc1	4.15 µM
CC(=O)NC1=C(N2CCN(Cc3ccccc3)CC2)C(=O)c2ccccc2C1=O	14.3 µM (inactive)
COc1cc(Cl)c(S(=O)(=O)NCCCN2CCOCC2)cc1Cl	3.61 µM
COc1ccccc1NC(=O)N1CCN(c2ccccn2)CC1	4.11 µM
Cc1ccc(C(=O)Nc2ccccc2C(=O)NC(C)C)cc1[N+](=O)[O-]	0.635 µM (inactive)
CC1CCN(S(=O)(=O)c2ccc(NC(=O)c3cccc([N+](=O)[O-])c3)cc2)CC1	2.7 µM
Cc1c(C(=O)Nc2ccc(F)c(F)c2)cccc1[N+](=O)[O-]	17.5 µM (inactive)
O=C(Nc1ccc(Br)cc1)c1ccccc1Cl	9.96 µM
O=C(CN1CCCCC1)NCC12CC3CC(CC(C3)C1)C2	9.27 µM
OC(CNCCc1ccccc1)c1ccccc1 (stereo unspecified)	6.91 µM
CCCCOc1ccc(CN2CCN(c3ccc([N+](=O)[O-])cc3)CC2)cc1	2.7 µM
CCN(CC(O)COc1ccc(Br)cc1)C1CCCCC1 (stereo unspecified)	10.2 µM
COc1ccc(OCCCN2CCCC(C)C2)cc1 (stereo unspecified)	12.5 µM
Cc1ccc(OCCCCN2CCOCC2)cc1	4.2 µM
CCOc1ccc(C(=O)NCCNC(=O)c2ccc(OCC)cc2)cc1	19.9 µM (inactive)
Cc1ccc(CN2CCN(CCO)CC2)cc1	16.1 µM
CC1CN(CC(O)COc2ccc(C(C)(C)C)cc2)CC(C)O1 (stereo unspecified)	9.95 µM
C1=CC2CC1CC2CN1CCN(c2ccccc2)CC1 (stereo unspecified)	0.0846 µM
Cc1ccc(C(=O)c2ccc(N3CCN(C)CC3)c(F)c2)cc1C	13.4 µM (inactive)
CN1CCN(Cc2ccc3c(c2)Cc2ccccc2-3)CC1	9.99 µM
COc1cc(C)nc(NCc2ccccc2)n1	1.33 µM
